Measurements from ChEMBL document CHEMBL4041532, “Zinc-Metalloproteinase Inhibitors: Evaluation of the Complex Role Played by the Zinc-Binding Group on Potency and Selectivity” (J Med Chem, 2017).
Calls of active or inactive are those of the source. The calls are words filed in the database; no cut-off is given here.

Experiments:
Collagenase 3 = Collagenase 3 (Homo sapiens, UniProt P45452); assay: Inhibition of human MMP13 catalytic domain using Mca-Pro-Leu-Gly-Leu-Dpa-Ala-Arg-NH2 fluorogenic substrate by spectrophotometric analysis
Stromelysin-2 = Stromelysin-2 (Homo sapiens, UniProt P09238); assay: Inhibition of human MMP10 catalytic domain using Mca-Pro-Leu-Gly-Leu-Dpa-Ala-Arg-NH2 fluorogenic substrate by spectrophotometric analysis
[1] = biological target: Macrophage metalloelastase (Homo sapiens) (UniProt P39900); assay: Ratio of Ki for human MMP12 catalytic domain (Met105 to Lys263 residues) at pH 9.5 to Ki for human MMP12 catalytic domain (Met105 to Lys263 residues) at pH 6
[2] = biological target: 72 kDa type IV collagenase (Homo sapiens) (UniProt P08253); assay: Inhibition of human MMP2 catalytic domain using Mca-Pro-Leu-Gly-Leu-Dpa-Ala-Arg-NH2 fluorogenic substrate by spectrophotometric analysis
72 kDa type IV collagenase (Homo sapiens), sequence (P08253 110-660 limits assumed): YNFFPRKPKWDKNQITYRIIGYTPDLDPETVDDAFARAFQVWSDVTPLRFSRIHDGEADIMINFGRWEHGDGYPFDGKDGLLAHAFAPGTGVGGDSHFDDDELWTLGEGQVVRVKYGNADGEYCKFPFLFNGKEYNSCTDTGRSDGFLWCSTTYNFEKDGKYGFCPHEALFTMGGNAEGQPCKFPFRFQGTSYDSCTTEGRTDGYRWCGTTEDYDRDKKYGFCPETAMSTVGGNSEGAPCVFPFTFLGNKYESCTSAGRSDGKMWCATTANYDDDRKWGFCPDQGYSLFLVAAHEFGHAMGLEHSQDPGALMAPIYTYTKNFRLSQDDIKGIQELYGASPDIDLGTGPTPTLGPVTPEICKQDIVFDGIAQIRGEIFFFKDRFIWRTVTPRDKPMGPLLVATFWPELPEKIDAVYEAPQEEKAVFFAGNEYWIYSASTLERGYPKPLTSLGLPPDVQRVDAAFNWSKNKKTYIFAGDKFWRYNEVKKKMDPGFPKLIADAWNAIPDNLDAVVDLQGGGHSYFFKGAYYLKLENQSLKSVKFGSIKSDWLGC

Stromelysin-2, sequence (P09238 whole entry, the tested form may be a part): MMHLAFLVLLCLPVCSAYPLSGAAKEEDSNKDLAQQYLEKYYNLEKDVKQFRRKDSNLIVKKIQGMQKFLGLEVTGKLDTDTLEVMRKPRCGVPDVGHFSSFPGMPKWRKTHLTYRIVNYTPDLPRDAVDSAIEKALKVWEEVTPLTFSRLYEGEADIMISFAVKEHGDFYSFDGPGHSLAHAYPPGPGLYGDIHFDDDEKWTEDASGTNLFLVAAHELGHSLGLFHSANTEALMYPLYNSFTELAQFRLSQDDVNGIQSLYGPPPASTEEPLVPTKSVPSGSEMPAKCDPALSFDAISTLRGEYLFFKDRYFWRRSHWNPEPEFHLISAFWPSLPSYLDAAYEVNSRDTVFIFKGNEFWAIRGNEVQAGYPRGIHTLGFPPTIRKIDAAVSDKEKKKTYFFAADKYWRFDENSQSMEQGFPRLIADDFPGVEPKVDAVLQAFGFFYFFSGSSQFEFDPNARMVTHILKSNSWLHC
Macrophage metalloelastase (Homo sapiens), sequence (P39900 106-470 limits assumed): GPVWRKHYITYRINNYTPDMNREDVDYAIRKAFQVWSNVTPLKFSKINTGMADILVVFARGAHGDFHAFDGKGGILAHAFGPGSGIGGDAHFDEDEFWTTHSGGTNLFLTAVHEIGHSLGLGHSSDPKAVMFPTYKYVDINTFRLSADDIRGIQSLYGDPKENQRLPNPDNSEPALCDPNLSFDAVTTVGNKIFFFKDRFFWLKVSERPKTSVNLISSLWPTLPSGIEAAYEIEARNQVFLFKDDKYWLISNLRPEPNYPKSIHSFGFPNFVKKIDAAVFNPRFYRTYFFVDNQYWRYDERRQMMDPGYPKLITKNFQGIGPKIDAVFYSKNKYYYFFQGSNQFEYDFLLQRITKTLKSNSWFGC

NC(=O)[C@H](CCC(=O)O)NC(=O)[C@H](CCC(=O)O)NC(=O)[C@@H](CC(=O)NO)Cc1cc(-c2ccc(-c3cccc(Cl)c3)cc2)no1
Ki (Collagenase 3): 0.008 nM | Ki (Stromelysin-2): 1.4 nM

NC(=O)[C@H](CCC(=O)O)NC(=O)[C@H](CCC(=O)O)NC(=O)[C@H](Cc1cc(-c2ccc(-c3cccc(Cl)c3)cc2)no1)CP(=O)(O)c1ccc(Br)cc1
Ki (Collagenase 3): 139 nM | Ki (Stromelysin-2): 149 nM | Ratio Ki [1]: 1100

NC(=O)[C@H](CCC(=O)O)NC(=O)[C@H](CCC(=O)O)NC(=O)[C@@H](CC(=O)O)Cc1cc(-c2ccc(-c3cccc(Cl)c3)cc2)no1
Activity (Collagenase 3): Active | Ratio Ki [1]: 980 | Activity [2]: Active
